# According to patent US20130065227A1, “METHODS OF INCREASING MACROPINOCYTOSIS IN CANCER CELLS” (priority 2010, published 2013):
# {Fluor} = fluorophore: 5-carboxyfluorescein (FAM) or Alexa Fluor 488
# Key:
# [1] = system: Cells; experiment: Antiproliferative MTT assay (FIG. 7); assay type: cell-based
# Method: FIG. 7 are graphs showing the results of comparative experiments. (Panel A) Cells were plated in 96-well plates at low density (1,000 cells per well) and incubated 18 hrs at 37° C. to allow adherence. Cells were treated by addition of different concentrations of AS1411 (obtained from Antisoma), AS1411 (obtained from Invitrogen), tAS1411, FL-AS1411, CRO, or tCRO directly to the medium, and proliferation was measured using a 3-(4,5-dimethylthiazol-2-yl)-2,5-diphenyltetrazolium bromide assay as described previously (Bates et al., 1999, J. Biol. Chem., 274:26369-77). Points represent mean of triplicate samples with SE. (Panel B) 10 μM FL-AS1411 or 10 μM FL-CRO were added to DU145 cells plated on 6-well plates. After incubation at 37° C. for 2 hrs, cells were washed twice with ice-cold PBS and harvested by trypsin treatment. Some cells were washed twice with ice-cold PBS containing dextran sulfate ([…]) or trypan blue ([…], pH 4.4). Cells were resuspended in ice-cold PBS and immediately analyzed by flow cytometry.
# Oligodeoxynucleotides were purchased from Invitrogen (Carlsbad, Calif.). […]
# [2] = system: MCF10A; experiment: Stimulation of macropinocytosis (dextran uptake); assay type: cell-based, human; conditions: MCF10A; Non-cancer, breast epithelial
# Method: FIG. 10 are graphs showing the stimulation of macropinocytosis by GROs. Breast carcinoma cells (MDA-MB-231, MCF-7) or non-malignant breast epithelial cells (MCF10A) cells were plated 18 hr before treatment with 10 μM tAS1411 or 10 μM tCRO or water in complete DMEM medium at 37° C. for 48 hr or 72 hr. After treatment, cell medium was changed for fresh complete medium containing 0.2 mg/ml dextran-10K labeled with Alexa Fluor 488 and cells were incubated for 30 min at 37° C. Cells were then incubated on ice with 1 mg/ml PI in PBS, harvested, and analyzed by flow cytometry. Uptake was normalized to no pre-treatment controls and bars show the mean and SE of three independent experiments. […]
# AS1411 causes a change in cancer cell morphology that is characterized by vacuolization, irregular nuclei, and swollen cells (Xu et al., 2001, J. Biol. Chem., 276:43221-30). […] To test this idea, DU145 cells were pre-treated for 24 h with tAS1411, then added FL-AS1411 and evaluated uptake after an additional 2 h using flow cytometry. […] This idea is not necessarily inconsistent with the time course data shown in FIG. 1A because the fluorescence signal may decrease over time for a number of reasons, including exocytosis of the ligand and fluorescence quenching due to protein binding or environmental factors (the fluorophore used for flow cytometry is particularly sensitive to acidic environments). […]
Substance,antiproliferative activity [1],Stimulate MP? [2]
"5′-Fluor-d(TTTCCTCCTCCTCCTTCTCCTCCTCCTCC) (DNA TTTCCTCCTCCTCCTTCTCCTCCTCCTCC; DNA, 5' {Fluor}, backbone and methylation of C not given here) [FL-CRO, reference compound]",no antiproliferative activity,–
5′-d(GGTGGTGGTGGTTGTGGTGGTGGTGG) [AS1411],–,No
